Assay results reported in patent publication US10780061B2, “Composition comprising farnesol and use thereof” (Daegu Gyongbuk Institute of Science and Technology, priority 2014, dated 2020).

What was measured:
[1] = test system: succinic dehydrogenase (SDH); test: SDH staining (mitochondrial enzyme activity) of extensor digitorum longus muscle; assay type: in vivo, mouse
Experimental: Staining of succinic dehydrogenase (SDH) in the extensor digitorum longus muscle of a mouse administered with farnesol for 5 weeks is performed. This staining method is a method of analyzing mitochondrial activity by measuring activity of SDH which is an enzyme involved in the electron transport chain of mitochondria. Staining degree represents a content of oxidative muscle fiber. Frozen tissue sections are reacted in 0.2 M phosphate buffer (pH 7.4) containing […] sodium succinate and nitro blue tetrazolium (NBT) at 37° C. for 60 minutes, washed with distilled water, and then sealed, followed by observation. Further, farnesol is administered to mice in the same manner as in Section 4 of Example 2, except that 22-month-old mice are used instead of 5-month-old mice and administration is performed for 4 months instead of 5 weeks, and activity of a mitochondrial enzyme according to farnesol administration is analyzed in the extensor digitorum longus muscles of old mice.

[2] = LC-MS/MS of farnesol and metabolite FPP in extensor digitorum longus muscle; assay type: in vivo; details: mouse orally administered with farnesol 5 weeks
Experimental: The amount of intracellular farnesol or metabolite thereof is measured in the extensor digitorum longus muscle of a mouse administered with farnesol for 5 weeks.
Sample pretreatment for quantitative analysis of farnesol in the mouse extensor digitorum longus muscle is performed by extraction using saturated KOH/ethanol and fractionation using Tris-HCl buffer and n-hexane: ethanol (Journal of Pharmaceutical and Biomedical Analysis 47(2008) 560-566) and an n-hexane layer is obtained and dried, followed by LC-MS/MS (ACQUITY UPLC System and ACQUITY TQD mass spectrometry, Waters). […] The concentration of farnesol is determined by a ratio of a peak area of farnesol to a peak area of 1-tetradecanol used as an internal standard, they are added to the sample in an equal amount.
Sample pretreatment for quantitative analysis of a farnesol metabolite, farnesylpyrophosphate (FPP) in the mouse extensor digitorum longus muscle is performed by extraction using 2-propanol: 100 mM NH4HCO3, pH 7.8 (1:1 v/v) and protein precipitation using acetonitrile (Anal. Biochem. 383 (2008) 18-24), and a supernatant is obtained and dried, followed by LC-MS/MS (ACQUITY UPLC System and ACQUITY TQD mass spectrometry, Waters). […] The concentration of FPP is determined by a peak area.

[3] = test system: fibrosis-related genes TGF-β, Col A1, collagen A3, Timp2; test: qRT-PCR of fibrosis-related genes in injured tibialis anterior muscle; assay type: in vivo; details: old mouse, CTX injury
Experimental: 25-month-old mice are fed with a control diet or a farnesol-containing diet for 2 weeks, and then 2 ul of 10 uM cardiotoxin (CTX) per body weight (g) is directly injected into the muscle to induce muscle injury. After 4 days, muscles are frozen and sectioned, followed by histological staining.
In addition, expressions of fibrosis-related genes, TGF-β, Col A1, collagen A3, and Timp2 in tibialis anterior muscle are analyzed by qRT-PCR as described above.

[4] = test system: AAV-PARIS WT or C631S-introduced tibialis anterior muscles; test: SDH staining of muscles introduced with AAV-PARIS WT or AAV-PARIS C631S; assay type: in vivo, mouse; details: 5-month-old mice, farnesol diet 1 week, 4 days after virus
Experimental: 5-month-old C57BL/6 male mice (body weight of 22 g) are fed with a control diet or a farnesol-containing diet for 1 week, and then AAV-GFP, AAV-PARIS WT or AAV-PARIS C631S virus is injected into tibialis anterior muscles. Feeding conditions, not mentioned, are the same as in Section 2 of Example 2. After 4 days, the muscles are collected and histological staining is performed to analyze mitochondrial enzyme activity. The staining is performed by SDH enzyme activity staining. Viral transduction efficiency is evaluated by GFP fluorescence.

[5] = test system: Myh2a-positive muscle fibers; test: Myh2a immunostaining of hind limb muscles, high fat diet (PGC-1α-inhibited) model; assay type: in vivo, mouse; details: high fat diet with 0.5% compound, 3 months
Text: To prepare the PGC-1α-inhibited model, 3-month-old mouse (female, body weight of 20 g) is fed with high fat diet, in which fat is increased to 60%, compared to a negative control group, for 5 days (short-term effect) or 3 months (long-term effect). The negative control group is fed with a general diet. Farnesol is mixed in the high fat diet at a content of 0.5% (weight of farnesol/weight of diet). A positive control group is fed with high fat diet containing a type II diabetes drug, metformin at a content of 0.5% (weight of metformin/weight of diet). Mice are fed with the general diet, the high fat diet, and the high fat diet containing farnesol or metformin for 3 months, and then hind limbs are removed to analyze muscle differentiation and mitochondrial enzyme activity.
In FIG. 6C, SD represents a standard diet as a negative control group, HFD represents a high fat diet, and HFD+Farnesol or HFD-metformin represents farnesol or metformin-added HFD, respectively.

Compound: CC(C)=CCC/C(C)=C/CC/C(C)=C/CO [farnesol, (2E,6E)-3,7,11-trimethyldodeca-2,6,10-trien-1-ol]
- percentage of the area stained dark (SDH activity) in EDL ([1]; 5-month-old mice, farnesol 5 weeks): remarkably increased
- percentage of the area stained dark (SDH activity) in EDL ([1]; 22-month-old mice, farnesol 4 months): remarkably increased
- amount of farnesol in EDL muscle relative to control [2]: ≥ 1.3 times
- expressions of fibrosis-related genes in injured tibialis anterior muscle [3]: significantly reduced
- reduction in mitochondrial enzyme activity (SDH), AAV-PARIS WT-introduced muscles [4]: inhibits a reduction
- percentage of Myh2a-postive muscle fibers [5]: significantly increases
